Values belong to the compound of their own block, whether it stands above or below them. Activity calls are given as the source filed them.
Key:
[1] = molecular target: 26S proteasome non-ATPase regulatory subunit 14 (Homo sapiens, UniProt O00487); experiment: inhibition of proteasome subunit RPN11 – biochemical, fluorescence polarization, uHTS hits, confirmation (AID 602368); type: functional
[2] = molecular target: Prothrombin (Bos taurus, UniProt P00735); experiment: thrombin inhibition, dose response, biochemical, fluorescence polarization, uHTS hits (AID 602369); type: functional
[3] = molecular target: 72 kDa type IV collagenase (Homo sapiens, UniProt P08253); experiment: Dose Response validation of uHTS RPN11 inhibitor hits using a MMP-2 Fluorescence assay.; type: functional
Chain of 72 kDa type IV collagenase (P08253 whole entry): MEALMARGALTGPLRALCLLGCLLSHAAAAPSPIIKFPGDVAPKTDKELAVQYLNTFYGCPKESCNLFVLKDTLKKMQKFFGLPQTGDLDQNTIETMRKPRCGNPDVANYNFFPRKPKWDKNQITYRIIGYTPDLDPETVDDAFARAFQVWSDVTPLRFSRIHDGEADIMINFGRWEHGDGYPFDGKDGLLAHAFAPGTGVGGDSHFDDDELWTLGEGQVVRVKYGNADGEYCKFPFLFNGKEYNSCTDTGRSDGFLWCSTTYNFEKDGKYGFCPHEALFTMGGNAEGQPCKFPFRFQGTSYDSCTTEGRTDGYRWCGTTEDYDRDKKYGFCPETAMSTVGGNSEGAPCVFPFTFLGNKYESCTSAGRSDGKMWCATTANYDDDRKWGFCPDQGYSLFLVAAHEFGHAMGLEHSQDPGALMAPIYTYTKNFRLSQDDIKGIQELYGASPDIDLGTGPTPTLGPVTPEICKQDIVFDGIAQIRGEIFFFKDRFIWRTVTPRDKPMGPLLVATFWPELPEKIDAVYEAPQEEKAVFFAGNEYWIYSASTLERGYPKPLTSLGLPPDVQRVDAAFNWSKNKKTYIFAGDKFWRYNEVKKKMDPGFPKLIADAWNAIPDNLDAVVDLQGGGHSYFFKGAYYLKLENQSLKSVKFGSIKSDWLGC

[4] = molecular target: T1, Bcl-2-related protein A1 (Mus musculus, UniProt Q07440); type: functional;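 further: confirmatory dose–response counterscreen on Bfl-1, used to check hits from a UBC13 polyubiquitin inhibitor campaign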
T1 sequence (Q07440 whole entry): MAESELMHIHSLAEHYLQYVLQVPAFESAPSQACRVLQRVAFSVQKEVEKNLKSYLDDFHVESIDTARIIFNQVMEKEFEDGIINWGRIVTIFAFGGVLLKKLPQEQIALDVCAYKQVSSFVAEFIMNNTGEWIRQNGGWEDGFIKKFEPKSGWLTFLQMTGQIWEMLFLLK

[5] = molecular target: T2, Ubiquitin-conjugating enzyme E2 N (Homo sapiens, UniProt P61088); type: functional
T2 sequence (P61088 whole entry): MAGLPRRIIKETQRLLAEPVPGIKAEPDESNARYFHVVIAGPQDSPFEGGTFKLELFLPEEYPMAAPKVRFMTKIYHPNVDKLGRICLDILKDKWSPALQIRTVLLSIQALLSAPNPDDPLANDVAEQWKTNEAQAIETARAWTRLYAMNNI

[6] = inhibitors of intracellular T. cruzi replication, confirmation, NIH3T3 host cells, beta-gal luminescence (AID 2044); type: functional, cell-based;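 further: intracellular parasites grown in NIH/3T3 mouse fibroblasts as host cells; luminescent beta-galactosidase reporter signal from transgenic T. cruzi replicating inside host cells; inhibitors lower the luminescence signal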
[7] = cytotoxicity toward NIH3T3 fibroblasts, dose response, counter-screen, cell-based, ATP luminescence, mouse fibroblasts (AID 2010); type: functional;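 further: cells exposed to compound for about 90 hours before reading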
[8] = molecular target: T2, Ubiquitin-conjugating enzyme E2 N; type: functional; remark: listed apart in the source
[9] = CRF-BP/CRF-R2 complex antagonists, dose response, cell-based, uHTS hits, 384-well (AID 651639); type: functional, Homo sapiens; conditions: read-out: IC50_Mean
[10] = molecular target: T3, Corticotropin-releasing factor receptor 2/Corticotropin-releasing factor-binding protein (Homo sapiens, UniProt P24387+Q13324); experiment: activators of CRF receptor 2 with binding protein – uHTS hits, confirmation (AID 602473); type: functional; conditions: read-out: EC50_Mean
T3 sequence (Q13324 whole entry): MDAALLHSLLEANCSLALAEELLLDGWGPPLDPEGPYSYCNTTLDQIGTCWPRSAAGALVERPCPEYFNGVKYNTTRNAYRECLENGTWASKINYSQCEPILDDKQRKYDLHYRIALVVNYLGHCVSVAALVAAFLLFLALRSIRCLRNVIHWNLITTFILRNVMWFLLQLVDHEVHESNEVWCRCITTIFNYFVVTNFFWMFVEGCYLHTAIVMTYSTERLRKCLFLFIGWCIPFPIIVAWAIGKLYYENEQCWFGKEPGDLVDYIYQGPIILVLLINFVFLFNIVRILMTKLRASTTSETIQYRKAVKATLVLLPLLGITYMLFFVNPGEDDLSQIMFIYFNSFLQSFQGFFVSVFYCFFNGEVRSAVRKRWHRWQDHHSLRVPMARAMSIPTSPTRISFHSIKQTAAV
T3 sequence (P24387 whole entry): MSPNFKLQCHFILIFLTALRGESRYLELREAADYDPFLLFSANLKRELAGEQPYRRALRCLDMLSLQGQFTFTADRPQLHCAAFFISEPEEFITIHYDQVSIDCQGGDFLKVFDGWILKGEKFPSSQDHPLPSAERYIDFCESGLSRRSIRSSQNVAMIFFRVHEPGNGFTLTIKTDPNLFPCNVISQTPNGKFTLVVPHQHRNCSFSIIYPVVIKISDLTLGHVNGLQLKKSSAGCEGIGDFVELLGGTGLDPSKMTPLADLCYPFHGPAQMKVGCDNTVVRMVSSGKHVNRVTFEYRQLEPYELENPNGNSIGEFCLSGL

[11] = molecular target: T3, Corticotropin-releasing factor receptor 2/Corticotropin-releasing factor-binding protein; experiment: Dose Response confirmation of uHTS hits for small molecule antagonists of the CRF-binding protein and CRF-R2 receptor complex.; type: functional; conditions: read-out: IC50_Mean
[12] = system: Escherichia coli; experiment: microbe, parasite or virus in culture
[13] = molecular target: Cytochrome P450 2C9 (Homo sapiens, UniProt P11712)
Chain of Cytochrome P450 2C9 (P11712 whole entry): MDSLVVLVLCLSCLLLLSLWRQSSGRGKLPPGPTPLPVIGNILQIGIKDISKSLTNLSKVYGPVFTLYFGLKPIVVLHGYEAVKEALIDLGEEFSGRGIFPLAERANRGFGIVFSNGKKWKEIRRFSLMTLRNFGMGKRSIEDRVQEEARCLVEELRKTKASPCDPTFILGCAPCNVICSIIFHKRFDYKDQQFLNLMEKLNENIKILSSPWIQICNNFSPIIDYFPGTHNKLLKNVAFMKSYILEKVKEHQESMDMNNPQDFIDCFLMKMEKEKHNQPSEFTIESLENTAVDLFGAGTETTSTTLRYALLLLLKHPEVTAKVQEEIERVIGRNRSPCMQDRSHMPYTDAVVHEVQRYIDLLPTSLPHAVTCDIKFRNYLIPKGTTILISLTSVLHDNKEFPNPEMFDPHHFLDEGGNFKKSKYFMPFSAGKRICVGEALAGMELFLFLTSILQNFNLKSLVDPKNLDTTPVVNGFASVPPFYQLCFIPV

[14] = molecular target: T4, Cytochrome P450 1A2 (Homo sapiens, UniProt P05177);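 further: PubChem cytochrome P450 panel assay, CYP1A2 panel member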
T4 sequence (P05177 whole entry): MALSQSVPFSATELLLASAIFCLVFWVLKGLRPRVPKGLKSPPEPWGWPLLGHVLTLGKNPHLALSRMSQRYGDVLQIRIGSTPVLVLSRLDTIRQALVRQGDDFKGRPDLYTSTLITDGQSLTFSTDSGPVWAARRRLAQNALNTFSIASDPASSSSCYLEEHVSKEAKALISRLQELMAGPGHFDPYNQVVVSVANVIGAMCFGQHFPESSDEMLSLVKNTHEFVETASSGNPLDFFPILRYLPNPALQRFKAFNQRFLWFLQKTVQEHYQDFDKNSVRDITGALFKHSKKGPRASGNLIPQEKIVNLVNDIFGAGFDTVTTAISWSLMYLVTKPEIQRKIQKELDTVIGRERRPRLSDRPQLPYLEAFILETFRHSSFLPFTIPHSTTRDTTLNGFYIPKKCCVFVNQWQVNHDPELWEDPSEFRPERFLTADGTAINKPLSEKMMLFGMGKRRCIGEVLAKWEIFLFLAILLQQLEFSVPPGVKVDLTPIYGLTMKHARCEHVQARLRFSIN

[15] = molecular target: T5, Rac GTPase-activating protein 1 (Homo sapiens, UniProt Q9H0H5); experiment: MgcRacGAP GTPase-activating activity inhibitors, confirmation, biochemical, ADP Hunter fluorescence, primary and confirmatory (AID 624330); type: functional
T5 sequence (Q9H0H5 whole entry): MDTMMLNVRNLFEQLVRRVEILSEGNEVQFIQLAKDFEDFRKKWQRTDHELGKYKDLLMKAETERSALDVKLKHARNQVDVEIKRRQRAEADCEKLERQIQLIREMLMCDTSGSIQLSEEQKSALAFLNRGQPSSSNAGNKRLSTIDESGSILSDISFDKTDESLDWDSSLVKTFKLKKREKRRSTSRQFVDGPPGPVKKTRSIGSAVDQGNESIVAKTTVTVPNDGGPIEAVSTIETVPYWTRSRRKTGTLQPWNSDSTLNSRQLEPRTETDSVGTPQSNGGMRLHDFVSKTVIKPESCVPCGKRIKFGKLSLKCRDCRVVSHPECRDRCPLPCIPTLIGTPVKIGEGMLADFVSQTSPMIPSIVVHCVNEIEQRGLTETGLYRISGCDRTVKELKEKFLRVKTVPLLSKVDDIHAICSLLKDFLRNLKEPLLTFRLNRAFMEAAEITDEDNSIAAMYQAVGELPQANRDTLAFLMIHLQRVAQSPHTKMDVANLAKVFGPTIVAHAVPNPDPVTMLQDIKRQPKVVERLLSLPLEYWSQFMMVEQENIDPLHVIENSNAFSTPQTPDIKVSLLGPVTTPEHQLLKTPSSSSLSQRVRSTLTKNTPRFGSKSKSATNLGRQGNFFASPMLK

[16] = molecular target: Ras and Rab interactor 1/Tyrosine-protein kinase ABL1 (Homo sapiens, UniProt P00519+Q13671); type: functional;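 further: biochemical TR-FRET dose-response test measuring inhibition of binding between Rin1 and Abl proteins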
Chain of Ras and Rab interactor 1/Tyrosine-protein kinase ABL1 (P00519 whole entry): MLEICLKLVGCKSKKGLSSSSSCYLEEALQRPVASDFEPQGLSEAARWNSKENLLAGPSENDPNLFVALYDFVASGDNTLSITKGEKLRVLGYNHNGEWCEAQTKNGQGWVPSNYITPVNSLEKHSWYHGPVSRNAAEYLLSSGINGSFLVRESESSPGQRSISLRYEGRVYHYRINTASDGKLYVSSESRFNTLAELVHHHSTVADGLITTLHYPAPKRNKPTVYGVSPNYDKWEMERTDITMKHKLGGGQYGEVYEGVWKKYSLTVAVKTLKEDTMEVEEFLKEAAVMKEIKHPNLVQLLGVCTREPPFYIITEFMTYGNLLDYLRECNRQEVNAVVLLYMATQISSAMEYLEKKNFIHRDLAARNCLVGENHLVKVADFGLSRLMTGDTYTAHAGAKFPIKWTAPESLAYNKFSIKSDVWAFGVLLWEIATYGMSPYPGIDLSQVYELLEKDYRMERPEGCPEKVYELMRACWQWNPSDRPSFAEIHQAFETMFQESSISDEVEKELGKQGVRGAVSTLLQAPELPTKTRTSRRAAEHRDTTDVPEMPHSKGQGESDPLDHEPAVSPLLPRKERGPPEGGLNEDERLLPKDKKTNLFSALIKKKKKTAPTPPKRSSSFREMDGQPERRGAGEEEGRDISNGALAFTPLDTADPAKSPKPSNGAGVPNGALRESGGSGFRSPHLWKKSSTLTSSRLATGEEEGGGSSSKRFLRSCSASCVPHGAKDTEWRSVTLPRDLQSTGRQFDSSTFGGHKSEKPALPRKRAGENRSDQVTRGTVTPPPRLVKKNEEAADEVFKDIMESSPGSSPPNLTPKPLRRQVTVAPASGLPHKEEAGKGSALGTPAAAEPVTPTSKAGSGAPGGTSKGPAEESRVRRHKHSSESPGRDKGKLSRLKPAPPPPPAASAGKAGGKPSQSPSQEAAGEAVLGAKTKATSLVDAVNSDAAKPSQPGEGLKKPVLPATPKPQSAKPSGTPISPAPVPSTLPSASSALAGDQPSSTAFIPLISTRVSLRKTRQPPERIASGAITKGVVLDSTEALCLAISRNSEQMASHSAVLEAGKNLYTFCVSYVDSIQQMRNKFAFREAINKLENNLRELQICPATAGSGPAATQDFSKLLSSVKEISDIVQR
Chain of Ras and Rab interactor 1/Tyrosine-protein kinase ABL1 (Q13671 whole entry): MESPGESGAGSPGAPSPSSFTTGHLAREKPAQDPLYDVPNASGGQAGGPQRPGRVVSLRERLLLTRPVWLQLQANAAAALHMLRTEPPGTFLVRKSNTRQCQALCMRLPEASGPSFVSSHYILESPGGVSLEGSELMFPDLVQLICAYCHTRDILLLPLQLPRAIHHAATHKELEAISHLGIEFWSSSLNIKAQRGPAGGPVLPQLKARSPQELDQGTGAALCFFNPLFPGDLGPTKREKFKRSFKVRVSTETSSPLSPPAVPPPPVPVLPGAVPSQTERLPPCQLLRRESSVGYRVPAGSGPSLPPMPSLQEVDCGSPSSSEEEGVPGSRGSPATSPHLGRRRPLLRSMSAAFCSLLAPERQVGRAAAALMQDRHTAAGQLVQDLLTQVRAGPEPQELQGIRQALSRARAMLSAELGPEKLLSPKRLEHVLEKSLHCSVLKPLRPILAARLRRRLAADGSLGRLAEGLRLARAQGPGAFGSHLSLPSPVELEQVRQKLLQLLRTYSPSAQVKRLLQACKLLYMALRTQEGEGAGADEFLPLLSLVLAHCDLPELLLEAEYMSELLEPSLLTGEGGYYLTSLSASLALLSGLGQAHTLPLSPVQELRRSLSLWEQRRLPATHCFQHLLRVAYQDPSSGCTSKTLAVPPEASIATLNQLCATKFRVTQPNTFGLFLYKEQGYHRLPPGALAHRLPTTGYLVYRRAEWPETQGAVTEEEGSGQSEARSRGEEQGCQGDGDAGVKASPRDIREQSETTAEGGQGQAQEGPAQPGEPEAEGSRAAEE

[17] = HEp-2 cell cytotoxicity, dose response, cytotoxicity control for RSV inhibitor project, HTS (AID 2410); type: functional; conditions: human respiratory syncytial virus
[18] = molecular target: T6, Zinc finger protein mex-5 (Caenorhabditis elegans, UniProt Q9XUB2); experiment: MEX-5/TCR-2 RNA interaction inhibitors, dose response, biochemical, C. elegans, fluorescence polarization (AID 1960)
T6 sequence (Q9XUB2 whole entry): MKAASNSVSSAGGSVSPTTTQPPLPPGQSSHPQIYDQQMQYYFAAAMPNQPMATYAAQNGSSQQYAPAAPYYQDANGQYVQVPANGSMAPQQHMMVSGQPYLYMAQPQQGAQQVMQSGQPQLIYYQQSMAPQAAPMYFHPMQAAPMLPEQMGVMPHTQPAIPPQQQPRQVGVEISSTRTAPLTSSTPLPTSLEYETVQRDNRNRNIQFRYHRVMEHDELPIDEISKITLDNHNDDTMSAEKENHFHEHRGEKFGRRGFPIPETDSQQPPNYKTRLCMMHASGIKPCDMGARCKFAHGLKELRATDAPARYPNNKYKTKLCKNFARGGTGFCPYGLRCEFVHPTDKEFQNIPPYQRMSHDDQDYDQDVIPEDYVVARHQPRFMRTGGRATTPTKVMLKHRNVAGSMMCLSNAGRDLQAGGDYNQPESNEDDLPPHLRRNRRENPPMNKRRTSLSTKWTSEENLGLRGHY

[19] = AlphaScreen signal interference compounds, dose response, artefact control for ARNT-TACC3 interaction inhibitor project, biochemical, luminescence, cherry-pick (AID 651705); type: functional;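 further: AlphaScreen bead proximity signal that flags compounds interfering with the detection technology; potency reflects signal decrease which marks the compound as an assay artifact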
[20] = molecular target: T7, RNA-binding protein pos-1 (Caenorhabditis elegans, UniProt G5EF15); experiment: inhibitors of POS-1/mex-3 RNA binding, dose response, biochemical, fluorescence polarization (AID 1964);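 further: purified POS-1 fused to maltose binding protein made in E. coli; potency of compounds blocking POS-1 binding to fluorescent RNA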
T7 sequence (G5EF15 whole entry): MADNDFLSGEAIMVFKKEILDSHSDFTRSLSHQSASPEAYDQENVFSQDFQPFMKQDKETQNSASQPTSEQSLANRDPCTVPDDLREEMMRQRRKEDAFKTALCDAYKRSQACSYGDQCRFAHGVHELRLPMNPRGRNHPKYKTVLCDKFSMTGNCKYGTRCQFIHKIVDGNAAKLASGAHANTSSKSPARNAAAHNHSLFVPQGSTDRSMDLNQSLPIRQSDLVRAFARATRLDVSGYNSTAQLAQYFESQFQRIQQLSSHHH

[21] = molecular target: T8, Hepatocyte nuclear factor 4-alpha (Homo sapiens, UniProt P41235); type: functional, cell-based;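 further: biochemical luminescence-based dose-response counterscreen measuring inhibition of HNF4 dimerization, run alongside a screen for blockers of ABHD5–perilipin-5 interaction; split luciferase complementation of HNF4 fusion proteins in cell lysate measuring dimerization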
T8 sequence (P41235 whole entry): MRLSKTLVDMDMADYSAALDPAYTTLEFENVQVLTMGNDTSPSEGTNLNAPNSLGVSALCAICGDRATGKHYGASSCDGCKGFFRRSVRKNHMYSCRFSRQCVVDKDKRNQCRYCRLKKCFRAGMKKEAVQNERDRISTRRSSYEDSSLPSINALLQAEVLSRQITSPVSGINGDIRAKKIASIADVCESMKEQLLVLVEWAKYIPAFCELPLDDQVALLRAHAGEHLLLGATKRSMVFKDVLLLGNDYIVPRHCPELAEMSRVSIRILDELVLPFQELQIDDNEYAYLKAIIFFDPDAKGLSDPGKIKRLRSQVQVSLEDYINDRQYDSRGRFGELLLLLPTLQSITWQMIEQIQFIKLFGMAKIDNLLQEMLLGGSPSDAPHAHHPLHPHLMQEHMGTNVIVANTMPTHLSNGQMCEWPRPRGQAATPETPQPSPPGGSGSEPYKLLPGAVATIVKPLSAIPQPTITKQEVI

Chain of 26S proteasome non-ATPase regulatory subunit 14 (O00487 whole entry): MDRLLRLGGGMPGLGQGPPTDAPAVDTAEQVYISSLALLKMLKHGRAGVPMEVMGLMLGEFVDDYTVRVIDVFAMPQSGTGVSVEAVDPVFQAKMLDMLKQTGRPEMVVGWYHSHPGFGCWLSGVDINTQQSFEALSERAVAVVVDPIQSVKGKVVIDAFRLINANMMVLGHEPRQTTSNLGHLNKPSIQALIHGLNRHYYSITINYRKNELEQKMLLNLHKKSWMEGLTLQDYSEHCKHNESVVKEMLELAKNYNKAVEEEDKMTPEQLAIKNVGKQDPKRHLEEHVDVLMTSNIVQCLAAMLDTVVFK

IC50 [1]: 47 µM (active) | IC50 [2]: > 100 µM (inactive) | IC50 [3]: 23.6 µM (active)
SMILES: CCc1ccc(OCC(=O)NNC(=O)c2cc(S(=O)(=O)N(C)C)ccc2N2CCCC2)cc1

SMILES: C=Cc1ccc(Cn2c(C(=O)O)c(C=O)c3ccccc32)cc1
IC50 [1]: 12.6 µM (active) | IC50 [2]: 39.1 µM (active) | IC50 [3]: > 100 µM (inactive)

SMILES: Cc1cc(C)c2sc(N(CCCN(C)C)C(=O)c3ccc(S(=O)(=O)N(C)C4CCCCC4)cc3)nc2c1
IC50 [4]: > 20 µM (inactive) | IC50 [5]: 10 µM (active) | EC50 [6]: 0.385 µM (active) | EC50 [7]: > 30 µM (not active) | IC50 [8]: 10.6 µM (active)

SMILES: COC(=O)c1sc(-c2ccc(C(C)(C)C)cc2)cc1NC(=O)COCC(=O)O
IC50 [9]: > 20 µM (inactive) | EC50 [10]: > 53 µM (inactive) | IC50 [11]: 11 µM (active)

SMILES: COc1cccc(CN2CCN(Cc3cc(OC)c(OC)cc3[N+](=O)[O-])CC2)c1.O=C(O)C(=O)O
AC50 [12]: > 150 µM (inactive) | EC50 [10]: > 53 µM (inactive) | AC50 [13]: inconclusive | AC50 [14]: 14.1 µM (inconclusive) | IC50 [15]: 56.8 µM (active) | IC50 [11]: > 47.1 µM (inactive)

SMILES: OC1(c2ccccc2Cl)NN=C2CCCCCN21 (configuration not stated)
AC50 [12]: 26 µM (active)

SMILES: CN(C)c1nc(SCC#N)nc(N2CCOCC2)n1
AC50 [12]: 66.1 µM (active)

IC50 [16]: > 73.5 µM (inactive)
SMILES: Cc1nc(Nc2cccc(O)c2)c2c3c(sc2n1)CCC3
CC50 [17]: 12.7 µM (active)

IC50 [9]: 9.87 µM (active) | EC50 [10]: > 53 µM (inactive) | IC50 [11]: 6.5 µM (active)
SMILES: CC(C)(C)OC(=O)N1CCC(c2cc(O)n3ncc(C(=O)NC4CCCC4)c3n2)CC1

EC50 [18]: > 300 µM (inconclusive) | EC50 [20]: > 300 µM (not active)
SMILES: O=C(NNc1ccccn1)C(=O)NNS(=O)(=O)c1ccc(F)cc1
AC50 [19]: 122 µM (active)

IC50 [4]: > 20 µM (inactive) | IC50 [5]: 5.15 µM (active) | IC50 [15]: 203 µM (active) | IC50 [8]: 5.36 µM (active)
SMILES: C#CCOCCOCCOCCNc1nc(N2CCN(C(=O)[C@H](CCCCN)n3cc(CN)nn3)CC2)nc(N2CCN(C(=O)[C@H](CCCCN)n3cc(CN)nn3)CC2)n1

SMILES: Oc1nc2ccccc2n1C1CCN(C(c2nnnn2-c2ccc3c(c2)OCCO3)C2CC2)CC1 (configuration not stated)
IC50 [16]: 40.9 µM (inactive)

IC50 [21]: 6 µM (active)
SMILES: COc1ccc(OCc2cn(CC(=O)c3ccc(O)cc3)nn2)cc1

IC50 [21]: 2.56 µM (active)
SMILES: Cc1cccc(C)c1NC(=O)C(c1ccc(C(F)(F)F)cc1)n1c(=O)c(-c2ccco2)nc2ccccc21 (configuration not stated)

SMILES: O=S(=O)(N[C@@H]1CC[C@H](CCn2cc(-c3ccccn3)nn2)O[C@@H]1CO)c1cccc(F)c1
AC50 [19]: 79.4 µM (active)

SMILES: O=C(N[C@@H]1CC[C@@H](CCn2cc(-c3ccccn3)nn2)O[C@H]1CO)c1ccncc1
AC50 [19]: 72.8 µM (active)

IC50 [4]: > 20 µM (inactive) | IC50 [5]: > 20 µM (inactive) | IC50 [8]: 16.4 µM (active)
SMILES: Cc1nc2ccccc2n1C1CCN(CC(=O)Nc2ccccc2Br)CC1 [ASN06356088]

— ChEMBL document CHEMBL1201862, “PubChem BioAssay data set” (2004)
